From US11419857B2, “Methods and compositions for treating pain” (Apkarian Technologies LLC, priority 2015, dated 2022)

Test system: iSPNs in NAc shell slices
Experiment: Whole-cell patch-clamp recording of iSPN excitability in NAc shell slices, drugs bath applied
Assay type: cell-based, mice
Description: Current clamp recordings were performed to quantify firing properties.
Sulpiride and Bicifadine were obtained from Tocris. CBR12909 was obtained from Sigma-Aldrich. Drugs were bath applied for at least 15 min to establish equilibrium in the tissue.

Structure (SMILES) | excitability of iSPNs (slices from SNI mice, bath application 20 μM) | excitability of iSPNs (brain slices from sham mice, 5 μM) | excitability of iSPNs (slices from SNI mice, 5 μM)
Cc1ccc(C23CNCC2C3)cc1 (stereo not drawn) [bicifadine] | decreased the excitability of iSPNs |  | 
CCN1CCCC1CNC(=O)c1cc(S(N)(=O)=O)ccc1OC (stereo not drawn) [sulpiride] |  | increased the excitability of iSPNs | no detectable change in iSPNs excitability
